T1: 3xHA-tagged eIF2β T238A mutant (yeast, UniProt P09064 1-285, T238A)
T1 construct: eIF2β, yeast SUI3 ORF + terminator with T238A, cloned behind SUI3 promoter + 3xHA; also called 3xHA-SUI3-T238A; source: yeast, single-copy plasmid, in whole-cell extract; not shown: 3xHA, N-terminal, kept
T1 sequence (looked up): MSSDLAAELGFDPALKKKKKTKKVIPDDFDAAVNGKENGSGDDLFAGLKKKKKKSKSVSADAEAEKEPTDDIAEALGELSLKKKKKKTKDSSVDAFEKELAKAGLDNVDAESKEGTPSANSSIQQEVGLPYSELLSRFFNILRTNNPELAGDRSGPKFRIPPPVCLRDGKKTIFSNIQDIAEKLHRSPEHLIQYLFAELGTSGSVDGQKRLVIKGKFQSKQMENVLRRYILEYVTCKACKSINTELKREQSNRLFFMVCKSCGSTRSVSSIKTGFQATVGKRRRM


Experiments:
eIF2 complex (eIF2αβγ) = biological target: T2, eIF2 complex (eIF2αβγ) (Saccharomyces cerevisiae, UniProt P32481); assay: fluorescence anisotropy titration of protein; assay type: binding; conditions: labelled compound at 100 nM; pH 7.5, 110 mM K acetate, 2.5 mM Mg acetate, 26 °C; Hill fit n = 1
T2 construct: gene GCD11; full-length heterotrimer, 8xHis tag on N-terminus of eIF2γ (GCD11), overexpressed from pRS425_GCD11, SUI3, SUI2 in yeast YP920 (sui2Δ sui3Δ gcd11Δ); Ni-NTA, heparin and cation exchange; with Eukaryotic translation initiation factor 2 subunit alpha
T2 sequence (P32481 whole entry, one chain of several): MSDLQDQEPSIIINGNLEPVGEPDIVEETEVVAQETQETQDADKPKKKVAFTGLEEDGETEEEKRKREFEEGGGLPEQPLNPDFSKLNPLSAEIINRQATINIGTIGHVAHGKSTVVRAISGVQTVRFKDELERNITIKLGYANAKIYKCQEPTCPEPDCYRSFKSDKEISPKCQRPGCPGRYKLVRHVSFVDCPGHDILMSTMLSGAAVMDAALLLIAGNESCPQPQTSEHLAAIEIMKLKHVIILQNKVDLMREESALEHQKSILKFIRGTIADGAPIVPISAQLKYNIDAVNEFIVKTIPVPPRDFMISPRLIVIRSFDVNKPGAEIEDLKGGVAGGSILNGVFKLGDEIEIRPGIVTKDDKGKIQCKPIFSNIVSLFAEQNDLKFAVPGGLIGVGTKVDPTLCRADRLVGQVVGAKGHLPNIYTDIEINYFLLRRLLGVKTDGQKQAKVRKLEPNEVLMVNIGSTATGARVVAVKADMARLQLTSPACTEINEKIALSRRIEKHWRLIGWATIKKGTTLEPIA
T2 sequence (P09064 whole entry partner, one chain of several): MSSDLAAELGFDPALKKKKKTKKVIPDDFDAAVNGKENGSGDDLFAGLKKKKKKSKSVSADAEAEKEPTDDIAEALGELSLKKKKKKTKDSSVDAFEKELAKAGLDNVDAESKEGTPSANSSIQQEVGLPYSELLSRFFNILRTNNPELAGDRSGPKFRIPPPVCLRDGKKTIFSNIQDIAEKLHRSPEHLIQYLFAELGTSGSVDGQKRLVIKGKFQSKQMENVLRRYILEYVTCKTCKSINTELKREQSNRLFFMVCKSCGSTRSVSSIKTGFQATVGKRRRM

[1] = biological target: T1, 3xHA-tagged eIF2β T238A mutant; assay: co-IP; Co-IP of the 3xHA-tagged eIF2β subunit from yeast extract (Supplementary Figure S1); conditions: partners not purified
[2] = biological target: T3, N-terminal 3xHA-tagged eIF2γ (wild type) (yeast, UniProt P32481 1-527); assay: co-IP; 3xHA-eIF2γ precipitated with anti-HA agarose beads from 300 μg yeast WCE (YP912), 4°C, 1 h; 20 mM HEPES pH 7.5, 100 mM KCl, 5 mM MgCl2, 5 mM NaF, 1 mM EDTA, 0.2% NP-40, 1% BSA; Western blot, bands normalised to the anti-HA band; conditions: partners not purified
T3 construct: eIF2γ, yeast GCD11; GCD11 ORF + terminator cloned behind GCD11 promoter + 3xHA; also called 3xHA eIF2γ; eIF2γ^WT; source: yeast strain YP912 (gcd11Δ, sui3Δ), single-copy plasmid, in whole-cell extract; not shown: 3xHA, N-terminal, kept
T3 sequence (P32481 whole entry): as the sequence (P32481 whole entry, one chain of several) above

Kd (eIF2 complex (eIF2αβγ)) [nM]	fold change of binding against the 3xHA-eIF2β wild type [1] [fold]	fold change of binding in the eIF2β^T238A strain against the eIF2β^WT strain [2] [fold]	Molecule
36.7	–	–	GDP-BODIPY
1400	–	–	GDPγS-BODIPY
–	1.3	~4.5	eIF2α subunit (natural protein, yeast, UniProt P20459 1-304, looked up, eIF2α, yeast SUI2; chromosomal gene in the co-IP strains, whole SUI2 gene on pRS425 for the purified complex; also called SUI2; source: endogenous, yeast whole-cell extract (YP912); yeast YP920, high-copy pRS425 plasmid, co-purified in the 8xHis-eIF2 complex) MSTSHCRFYENKYPEIDDIVMVNVQQIAEMGAYVKLLEYDNIEGMILLSELSRRRIRSIQKLIRVGKNDVAVVLRVDKEKGYIDLSKRRVSSEDIIKCEEKYQKSKTVHSILRYCAEKFQIPLEELYKTIAWPLSRKFGHAYEAFKLSIIDETVWEGIEPPSKDVLDELKNYISKRLTPQAVKIRADVEVSCFSYEGIDAIKDALKSAEDMSTEQMQVKVKLVAAPLYVLTTQALDKQKGIEQLESAIEKITEVITKYGGVCNITMPPKAVTATEDAELQALLESKELDNRSDSEDDEDESDDE

From article PMC11230868, “eIF2β zinc-binding domain interacts with the eIF2γ subunit through the guanine nucleotide binding interface to promote Met-tRNAi^Met binding” (Bioscience Reports, 2024)
